Results taken from patent publication US8058258B2, “Methods for cancer therapy and stem cell modulation” (Agency for Science, Technology and Research, priority 2006, dated 2011).

Tests used:
[1] = test system: trimethylation of histone 3 at lysine 27 (H3-K27); test: Western blot of histone H3 lysine 27 trimethylation; assay type: cell-based, human; details: HCT116 or MCF-7 cells, 5 μM, 48 and 72 hours
Description: (§1) Cell lines used in these examples were purchased from the American Type Culture Collection (Manassas, Va.). Cells were maintained in DMEM supplemented with 10% fetal bovine serum with glutamine, penicillin, and streptomycin. For drug treatment, cells were seeded the day before the drug treatment. Cells were treated with 5 μM 3-Deazaneplanocin A or 2 μM 5-aza-2'-deoxycytidine (5-AzaC; Sigma) for 72 hours and trichostatin A (TSA; Sigma) at 100 nM for 24 hours. For co-treatment of cells with 5-AzaC and TSA, 5-Aza was added for 48 hours and followed by TSA for 24 hours. Cell pellets were first lysed in RadioImmuno Precipitation Assay (RIPA) buffer, consisting of an aqueous solution of 25 mM Tris-HCl pH 7.6, 150 mM NaCl, 1% Nonidet-P 40 (NP-40), 1% sodium deoxycholate and 0.1% sodium dodecylsulfate (SDS), before further sonicated using a tissue homogeniser to release all the proteins. Equal amounts of protein were separated on SDS-polyacrylamide gels and transferred to polyvinylidene difluoride (PVDF) membranes. The blots were probed with antibodies against: EED (07-368), SUZ12 (07-379), SUV39H1 (07-550), BMI1 (05-637), tri-methylated H3-K27 (07-449), tri-methylated H3-K9 (07-442) and Acetyl-Histone H3 (06-599), and were purchased from Upstate. EZH2 (AC22) and Histone H3 (3H1) were from Cell Signaling. […]

[2] = test system: DNMT1 or DNMT3B; test: Western blot of DNMT protein expression; assay type: cell-based, human; details: HCT116 or MCF-7 cells, 5 μM, 48 and 72 hours
Description: as §1

[3] = test system: caspase 3 in HCT116 cells; test: Caspase 3 activity by flow cytometry; assay type: cell-based
Text: FIG. 3D depicts the detection of activation the protease caspase 3 potential in HCT116 cells by 3-deazaneplanocin (DZNep, right hand side), which occurs during apoptosis. Cells were trypsinised and washed with PBS and fixed in 70% ethanol and processed for propidium iodide staining and FACS analysis. For the caspase 3 activity assay and mitochondrial membrane potential detection, cells were stained with anti-active caspase 3 and JC-1, respectively, according to the manufacturer's instructions (BD Bioscience).

[4] = test system: MCF-7 and HCT116 cells; test: Mitochondrial membrane potential by JC-1 staining and flow cytometry; assay type: cell-based; details: JC-1, flow cytometry
Text: FIG. 3B depicts the detection of mitochondrial membrane potential of HCT116 cells by staining with the dye 5,5′,6,6′-tetrachloro-1,1′,3,3′-tetraethyl-benzamidazolocarbocyanin iodide (JC-1).
FIG. 3C compares the apoptosis in HCT116 cells (right hand side, data of FIG. 3B) to the apoptosis in MCF-7 cells (left hand side).
(§2) Cells were trypsinised and washed with PBS and fixed in 70% ethanol and processed for propidium iodide staining and FACS analysis. For the caspase 3 activity assay and mitochondrial membrane potential detection, cells were stained with anti-active caspase 3 and JC-1, respectively, according to the manufacturer's instructions (BD Bioscience).
To elucidate the mechanisms by which 3-deazaneplanocin induces cell death, flow cytometry was used to analyse the loss of mitochondrial membrane potential (ΔΨm) in MCF-7 and HCT116 cells after 3-deazaneplanocin treatment (FIGS. 3B & 3C).

[5] = test system: caspase 9, and poly(ADP-ribose) polymerase (PARP); test: Western blot of caspase and PARP cleavage; assay type: cell-based; details: 3-deazaneplanocin-treated cells (MCF-7, HCT116; 5 μM, 48 and 72 h)
Description: FIG. 3E depicts a Western blot analysis of the activation of caspases. MCF-7 and HCT16 cells were treated with 5 μM 3-deazaneplanocin (“DZNep”) for 48 and 72 h before analysis of whole-cell extracts. Activation of caspases and poly(ADP-ribose) polymerase (“PARP”) was detected after 3-deazaneplanocin treatment. β-Actin (“Actin”) was used as a loading control.
Cell pellets were first lysed in RadioImmuno Precipitation Assay (RIPA) buffer, consisting of an aqueous solution of 25 mM Tris-HCl pH 7.6, 150 mM NaCl, 1% Nonidet-P 40 (NP-40), 1% sodium deoxycholate and 0.1% sodium dodecylsulfate (SDS), before further sonicated using a tissue homogeniser to release all the proteins. Equal amounts of protein were separated on SDS-polyacrylamide gels and transferred to polyvinylidene difluoride (PVDF) membranes. The blots were probed with antibodies against: EED (07-368), SUZ12 (07-379), SUV39H1 (07-550), BMI1 (05-637), tri-methylated H3-K27 (07-449), tri-methylated H3-K9 (07-442) and Acetyl-Histone H3 (06-599), and were purchased from Upstate. EZH2 (AC22) and Histone H3 (3H1) were from Cell Signaling. Antibodies against DNA methyl-transferases DNMT1 and DNMT3B were purchased from Alexis Biochemicals. […]

[6] = test system: T47D cells; test: Apoptotic response time course by FACS analysis; assay type: cell-based, human; details: 5 μM, time course to 120 hours
Description: (§3) FIG. 6A depicts an analysis of the breast cancer cell lines MCF-7, MB-468, SK-BR-3, MB-231, T47D and BT549 for an apoptotic effect of 5 μM 3-deazaneplanocin over a time frame of 120 hours. Cell death was measured by FACS analysis. Data presented are the average of three independent experiments.
as §2
(§4) To extend the observation seen in MCF-7 cells, additional breast cancer cell lines were screened, including MB-468, SK-BR-3, MB-231, T47D and BT549. […] To identify the PRC2 target genes associated with the cellular sensitivity to 3-deazaneplanocin, the array analysis was performed in these breast cancer cell lines before and after 3-deazaneplanocin treatment and the expression of the 47 identified PRC2 targets profiled. It was reasoned that some the PRC2 target genes might be differentially expressed between the sensitive and resistant cell lines, which might confer the distinct sensitivity to 3-deazaneplanocin. […] Both the real time and conventional RT-PCR analysis of the 4 gene set confirmed the array data (FIGS. 6D & 6E). […]

[7] = test system: SK-BR-3 cells; test: Apoptotic response time course by FACS analysis; assay type: cell-based, human; details: SK-BR-3, 5 μM, time course to 120 hours
Description: as §3, §2, §4

Nc1nccc2c1ncn2C1C=C(CO)C(O)C1O (stereo not shown) [3-deazaneplanocin, 5-(4-amino-1H-imidazo[4,5-c]pyridin-1-yl)-3-(hydroxymethyl)-3-cyclopentene-1,2-diol]
trimethylation of histone 3 at lysine 27 (H3-K27) [1]: strongly reduced
DNMT1 or DNMT3B protein expression [2]: did not cause a change
activation of the protease caspase 3 [3]: activation
loss of mitochondrial membrane potential (ΔΨm) [4]: marked increase in the percentage of cells with lower ΔΨm
cleavage of caspase 9, and poly(ADP-ribose) polymerase (PARP) [5]: easily detectable
sensitivity to 3-deazaneplanocin-induced cell death [6]: highly susceptible
sensitivity to 3-deazaneplanocin-induced cell death [7]: highly susceptible
